The NIST ThermoML archive (doi:10.1021/je049540s)
± gives the expanded uncertainty stated by the source. One block for each compound: values may come before it.

Experiments:
[1] = activity coefficient (dimensionless); of the first substance listed, at infinite dilution; xn = mol fraction of the nth substance listed; details: 101.3 kPa, Liquid, Differential ebulliometry, x1 = 0
[2] = 308.15 K; 101.3 kPa; Liquid
[3] = refractive index (Na D-line) (dimensionless); details: 101.33 kPa, Liquid, Standard Abbe refractometry
[4] = xn = mol fraction of the nth substance listed; details: 308.15 K, 101.3 kPa, Liquid

activity coefficient ([1]; 373.15 K): 7.79 ± 1.1 | activity coefficient ([1]; 403.15 K): 5.37 ± 0.75 | activity coefficient ([1]; 433.15 K): 4.26 ± 0.6
Compound: Cc1cccc(O)c1 [3-methylphenol] + CCCCCCCCCC

Compound: CCCCCCCCC [nonane]
mass density [2]: 707.41 ± 0.38 kg/m3 | refractive index ([3]; 293.15 K): 1.4058 ± 0.0007

activity coefficient ([1]; 373.15 K): 9.21 ± 1.3 | activity coefficient ([1]; 393.15 K): 7.06 ± 0.99 | activity coefficient ([1]; 413.15 K): 5.96 ± 0.83 | mass density ([4]; x1 = 0.1021): 726.54 ± 0.36 kg/m3 | mass density ([4]; x1 = 0.1998): 747.24 ± 0.34 kg/m3 | mass density ([4]; x1 = 0.302): 770.94 ± 0.33 kg/m3 | mass density ([4]; x1 = 0.4021): 796.76 ± 0.31 kg/m3 | mass density ([4]; x1 = 0.5): 825 ± 0.31 kg/m3 | mass density ([4]; x1 = 0.7): 892.22 ± 0.23 kg/m3 | mass density ([4]; x1 = 0.9): 974.43 ± 0.14 kg/m3 | mass density ([4]; x1 = 1): 1022.02 ± 0.13 kg/m3
Compound: Cc1cccc(O)c1 [3-methylphenol] + CCCCCCCCC

Compound: Cc1ccccc1O [2-methylphenol] + CCCCCCCCCC
activity coefficient ([1]; 393.15 K): 4.15 ± 0.58 | activity coefficient ([1]; 413.15 K): 3.49 ± 0.49 | activity coefficient ([1]; 433.15 K): 3.04 ± 0.43 | mass density ([4]; x1 = 0.0637): 730.49 ± 0.42 kg/m3 | mass density ([4]; x1 = 0.0908): 735.2 ± 0.42 kg/m3 | mass density ([4]; x1 = 0.162): 748.33 ± 0.42 kg/m3 | mass density ([4]; x1 = 0.2086): 757.57 ± 0.42 kg/m3 | mass density ([4]; x1 = 0.272): 770.9 ± 0.41 kg/m3 | mass density ([4]; x1 = 0.3186): 781.32 ± 0.42 kg/m3 | mass density ([4]; x1 = 0.4014): 801.21 ± 0.42 kg/m3 | mass density ([4]; x1 = 0.4707): 819.47 ± 0.43 kg/m3 | mass density ([4]; x1 = 0.529): 836.06 ± 0.43 kg/m3 | mass density ([4]; x1 = 0.6014): 858.4 ± 0.43 kg/m3 | mass density ([4]; x1 = 0.6596): 878.02 ± 0.43 kg/m3 | mass density ([4]; x1 = 0.7379): 906.95 ± 0.43 kg/m3 | mass density ([4]; x1 = 0.7876): 927.04 ± 0.43 kg/m3 | mass density ([4]; x1 = 0.8714): 964.58 ± 0.44 kg/m3 | mass density ([4]; x1 = 0.9348): 996.28 ± 0.45 kg/m3 | mass density ([4]; x1 = 0.9617): 1010.78 ± 0.47 kg/m3 | mass density ([4]; x1 = 1): 1032.73 ± 0.49 kg/m3

mass density ([4]; x1 = 0.1325): 756.67 ± 0.34 kg/m3 | mass density ([4]; x1 = 0.2055): 767.97 ± 0.33 kg/m3 | mass density ([4]; x1 = 0.3009): 784.51 ± 0.32 kg/m3 | mass density ([4]; x1 = 0.4009): 804.35 ± 0.31 kg/m3 | mass density ([4]; x1 = 0.6976): 883.71 ± 0.23 kg/m3 | mass density ([4]; x1 = 0.7987): 921.29 ± 0.2 kg/m3 | mass density ([4]; x1 = 0.895): 963.9 ± 0.15 kg/m3 | mass density ([4]; x1 = 1): 1022.02 ± 0.13 kg/m3
Compound: Cc1cccc(O)c1 [3-methylphenol] + CCCCCCCCCCCC

Compound: CCCCCCCCCC [decane] + Cc1ccccc1O
mass density ([4]; x2 = 0): 720.24 ± 0.42 kg/m3

Compound: CCCCCCCCC [nonane] + Cc1ccccc1O
mass density ([4]; x2 = 0): 707.41 ± 0.38 kg/m3

mass density [2]: 1022.02 ± 0.13 kg/m3 | refractive index ([3]; 293.15 K): 1.5401 ± 0.0007
Compound: Cc1cccc(O)c1 [3-methylphenol]

mass density ([4]; x2 = 0): 738.63 ± 0.36 kg/m3
Compound: CCCCCCCCCCCC [dodecane] + Cc1cccc(O)c1

Compound: CCCCCCCCCC [decane]
mass density [2]: 720.24 ± 0.42 kg/m3 | refractive index ([3]; 308.15 K): 1.4055 ± 0.0007

Compound: CCCCCCCCCCC [undecane]
mass density [2]: 729.13 ± 0.36 kg/m3 | refractive index ([3]; 293.15 K): 1.4164 ± 0.0007

Compound: CCCCCCCCCCC [undecane] + Cc1ccccc1O
mass density ([4]; x2 = 0): 729.13 ± 0.36 kg/m3 | mass density ([4]; x2 = 0.0367): 734.21 ± 0.35 kg/m3 | mass density ([4]; x2 = 0.0684): 738.92 ± 0.35 kg/m3 | mass density ([4]; x2 = 0.0746): 739.92 ± 0.35 kg/m3 | mass density ([4]; x2 = 0.1306): 748.8 ± 0.35 kg/m3 | mass density ([4]; x2 = 0.2094): 762.7 ± 0.34 kg/m3 | mass density ([4]; x2 = 0.2809): 776.41 ± 0.34 kg/m3 | mass density ([4]; x2 = 0.3636): 794.01 ± 0.34 kg/m3 | mass density ([4]; x2 = 0.4749): 820.79 ± 0.35 kg/m3 | mass density ([4]; x2 = 0.5311): 835.93 ± 0.36 kg/m3 | mass density ([4]; x2 = 0.5989): 855.95 ± 0.36 kg/m3 | mass density ([4]; x2 = 0.6593): 875.61 ± 0.37 kg/m3 | mass density ([4]; x2 = 0.7261): 899.41 ± 0.38 kg/m3 | mass density ([4]; x2 = 0.8065): 931.92 ± 0.39 kg/m3 | mass density ([4]; x2 = 0.8662): 959.18 ± 0.41 kg/m3 | mass density ([4]; x2 = 0.9476): 1001.43 ± 0.45 kg/m3

mass density [2]: 738.63 ± 0.36 kg/m3 | refractive index ([3]; 293.15 K): 1.421 ± 0.0007
Compound: CCCCCCCCCCCC [dodecane]

Compound: Cc1ccccc1O [2-methylphenol] + CCCCCCCCCCC
activity coefficient ([1]; 393.15 K): 4.47 ± 0.63 | activity coefficient ([1]; 413.15 K): 3.77 ± 0.53 | activity coefficient ([1]; 433.15 K): 2.85 ± 0.4 | mass density ([4]; x1 = 1): 1032.73 ± 0.49 kg/m3

Compound: Cc1ccccc1O [2-methylphenol]
mass density [2]: 1032.73 ± 0.49 kg/m3 | refractive index ([3]; 308.15 K): 1.5386 ± 0.0007

Compound: CCCCCCCCC [nonane] + Cc1cccc(O)c1
mass density ([4]; x2 = 0): 707.41 ± 0.38 kg/m3

Compound: Cc1ccccc1O [2-methylphenol] + CCCCCCCCC
activity coefficient ([1]; 373.15 K): 5.84 ± 0.82 | activity coefficient ([1]; 393.15 K): 4.58 ± 0.64 | activity coefficient ([1]; 413.15 K): 3.8 ± 0.5 | mass density ([4]; x1 = 0.0661): 719.58 ± 0.37 kg/m3 | mass density ([4]; x1 = 0.0684): 720.02 ± 0.37 kg/m3 | mass density ([4]; x1 = 0.1489): 736.5 ± 0.36 kg/m3 | mass density ([4]; x1 = 0.2085): 749.6 ± 0.35 kg/m3 | mass density ([4]; x1 = 0.2703): 764.08 ± 0.35 kg/m3 | mass density ([4]; x1 = 0.3994): 797.32 ± 0.35 kg/m3 | mass density ([4]; x1 = 0.4008): 797.69 ± 0.35 kg/m3 | mass density ([4]; x1 = 0.4688): 817.04 ± 0.36 kg/m3 | mass density ([4]; x1 = 0.5237): 833.66 ± 0.37 kg/m3 | mass density ([4]; x1 = 0.5941): 856.51 ± 0.36 kg/m3 | mass density ([4]; x1 = 0.6631): 880.76 ± 0.37 kg/m3 | mass density ([4]; x1 = 0.7323): 906.98 ± 0.38 kg/m3 | mass density ([4]; x1 = 0.8106): 939.53 ± 0.39 kg/m3 | mass density ([4]; x1 = 0.8674): 965.12 ± 0.41 kg/m3 | mass density ([4]; x1 = 0.9285): 994.76 ± 0.44 kg/m3 | mass density ([4]; x1 = 1): 1032.73 ± 0.49 kg/m3

activity coefficient ([1]; 393.15 K): 6.25 ± 0.88 | activity coefficient ([1]; 413.15 K): 4.9 ± 0.69 | activity coefficient ([1]; 433.15 K): 3.93 ± 0.55 | mass density ([4]; x1 = 0.1287): 748.52 ± 0.34 kg/m3 | mass density ([4]; x1 = 0.1853): 758.11 ± 0.33 kg/m3 | mass density ([4]; x1 = 0.3395): 787.84 ± 0.31 kg/m3 | mass density ([4]; x1 = 0.389): 798.63 ± 0.3 kg/m3 | mass density ([4]; x1 = 0.5024): 826.11 ± 0.29 kg/m3 | mass density ([4]; x1 = 0.6023): 854.21 ± 0.26 kg/m3 | mass density ([4]; x1 = 0.6949): 884.19 ± 0.23 kg/m3 | mass density ([4]; x1 = 0.8): 923.73 ± 0.19 kg/m3 | mass density ([4]; x1 = 0.9): 968.61 ± 0.14 kg/m3 | mass density ([4]; x1 = 1): 1022.02 ± 0.13 kg/m3
Compound: Cc1cccc(O)c1 [3-methylphenol] + CCCCCCCCCCC

Compound: CCCCCCCCCCC [undecane] + Cc1cccc(O)c1
mass density ([4]; x2 = 0): 729.13 ± 0.36 kg/m3
